Measured values from article PMC12430443, “Discovery of Novel Benzamide-Based Sigma-1 Receptor Agonists with Enhanced Selectivity and Safety” (Molecules, 2025).

What was measured:
Type in all cases: in vitro ADME
[1] = Plasma stability in mouse plasma; conditions: male CD-1 mouse plasma, 37 °C, read-out: Mouse plasma t1/2 (converted)
Experimental: (§1) Solubility and stability remained unchanged in simulated gastric fluid (SGF) and simulated intestinal fluid (SIF), which mimic gastrointestinal digestion. Intestinal permeability was assessed using a two-chamber system with apical (A, pH 6.5) and basolateral (B, pH 7.4) compartments, representing the luminal and blood/mesenteric lymph sides of the gastrointestinal tract, respectively. […] The efflux ratios for both compounds ranged between 1 and 2, indicating improved permeability relative to the reference compound 1.
Plasma stability was evaluated by M2SV (Lille, France) in duplicate. Male CD-1 mouse plasma (lithium-heparinized; Sera Laboratories International Ltd. BioIVT, West Sussex, UK) was pre-incubated for 10 min at 37 °C before addition of the test compound (final concentration 10 μM, 0.1% DMSO). At 0, 60, 1440, and 2880 min, aliquots were transferred to chilled tubes containing acetonitrile and propranolol (1 μM) as internal standard.

[2] = target: T1, CYP2C19 (Homo sapiens, UniProt P33261); assay: CYP inhibition in human liver microsomes; conditions: n = 2, read-out: CYP inhibition 2C19
T1 construct: tissue Eurofins Cerep (assay provider); host or cells: human liver microsomes
T1 sequence (P33261 whole entry): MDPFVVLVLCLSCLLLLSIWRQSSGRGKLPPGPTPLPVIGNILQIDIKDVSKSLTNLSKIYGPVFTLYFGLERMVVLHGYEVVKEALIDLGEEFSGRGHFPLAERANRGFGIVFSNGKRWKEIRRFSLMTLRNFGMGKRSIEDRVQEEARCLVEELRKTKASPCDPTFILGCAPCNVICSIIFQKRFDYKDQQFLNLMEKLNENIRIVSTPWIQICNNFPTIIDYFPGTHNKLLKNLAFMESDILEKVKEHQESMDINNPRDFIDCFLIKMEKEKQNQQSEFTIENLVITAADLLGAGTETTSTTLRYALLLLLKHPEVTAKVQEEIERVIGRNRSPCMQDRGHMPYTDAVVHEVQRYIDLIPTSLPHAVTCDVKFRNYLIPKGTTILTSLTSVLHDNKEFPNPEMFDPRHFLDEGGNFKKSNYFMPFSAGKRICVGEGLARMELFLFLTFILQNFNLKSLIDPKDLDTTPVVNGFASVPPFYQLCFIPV
Experimental: (§2) Microsomal stability was evaluated using human liver microsomes at 10 µM (Table 3). […] Since cytochrome P450 (CYP) enzymes—especially families 1 to 3—play major roles in drug metabolism, CYP inhibition was tested against the human isoforms CYP1A, 2B6, 2C8, 2C9, 2C19, 2D6, and 3A, as recommended by FDA and EMA guidelines. […] Membrane transport proteins, including the ATP-binding cassette (ABC) and solute carrier (SLC) families, affect drug pharmacokinetics and potential drug–drug interactions. The inhibitory effects of compounds 2 and 6 were assessed against five ABC transporters (P-gp, BCRP, MRP1, MRP2, and MRP3) and seven SLC transporters (OAT1, OAT3, OATP1B1, OCT1, OCT2, ASBT, and NTCP).
(§3) Standardized in vitro ADME experiments were performed by Eurofins Cerep (Poitiers, France). Solubility assays were performed in PBS at pH 7.4, but also in simulated gastric fluid (SGF) and intestinal fluid (SIF), through the classical shake-flask method described by Lipinski et al., using HPLC-UV/VIS technology. The results were expressed in µM. The compound was classically evaluated at 10 µM for all of the ADME analyses. Bidirectional permeability (apical A to basolateral B pH 6.5/7.4, and basolateral B to apical A pH 7.4/6.5) was assessed in the epithelial colorectal adenocarcinoma cell line (Caco-2 cell line). The results were expressed as ×10^−6 cm/s (Papp) and as % recovery. The efflux ratio, i.e., Papp (B→A)/Papp(A→B), was calculated. Plasma protein binding was analyzed by HPLC-MS/MS after 4 h of incubation at 37 °C, as described by Banker et al.. Concentration was evaluated by LC/MS-MS. CYP inhibition was performed in human liver microsomes as described in [28]. Analysis of the respective metabolites was performed by HPLC-MS/MS. Transporter inhibition analysis was also performed in overexpressing cell lines. Respective metabolites for each specific transporter substrate were analyzed by fluorometry or scintillation counting, and % inhibition of control values were calculated. P-glycoprotein transporter substrate assessment was performed by bidirectional permeability analysis (apical A to basolateral B pH 7.4/7.4, and basolateral B to apical A pH 7.4/7.4) in the Caco-2 cell line with and without verapamil, as described in [26]. The results were expressed as ×10^−6 cm/s (Papp) and as % recovery. The efflux ratio was calculated as Papp(B→A)/Papp(A→B). CYP450 induction was assessed in human hepatocytes by measuring the mRNA levels of seven CYP isoforms via qPCR, as described in [40]. The compound was tested at 1, 10, and 100 μM, and fold-induction values were compared with predefined cut-off thresholds for each isoform and hepatocyte lot.

[3] = system: CYP3A; assay: CYP inhibition in human liver microsomes; conditions: n = 2, read-out: CYP inhibition 3A
Experimental: as §2, §3

[4] = target: T2, CYP2C9 (Homo sapiens, UniProt P11712); assay: CYP inhibition in human liver microsomes; conditions: n = 2, read-out: CYP inhibition 2C9
T2 construct: tissue Eurofins Cerep (assay provider); host or cells: human liver microsomes
T2 sequence (P11712 whole entry): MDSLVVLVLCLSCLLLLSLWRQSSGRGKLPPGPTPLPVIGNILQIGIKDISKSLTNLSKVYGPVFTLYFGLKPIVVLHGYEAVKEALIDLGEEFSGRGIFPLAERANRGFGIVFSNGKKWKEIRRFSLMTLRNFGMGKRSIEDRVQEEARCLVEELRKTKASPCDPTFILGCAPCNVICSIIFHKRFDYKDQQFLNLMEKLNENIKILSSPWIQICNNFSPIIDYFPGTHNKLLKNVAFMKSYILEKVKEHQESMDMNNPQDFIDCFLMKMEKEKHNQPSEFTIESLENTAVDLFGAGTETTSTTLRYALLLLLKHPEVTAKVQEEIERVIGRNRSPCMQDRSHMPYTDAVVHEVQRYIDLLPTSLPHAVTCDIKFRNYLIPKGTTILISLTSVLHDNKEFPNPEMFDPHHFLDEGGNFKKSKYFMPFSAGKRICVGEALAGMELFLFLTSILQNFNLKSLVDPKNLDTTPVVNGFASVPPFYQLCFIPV
Experimental: as §2, §3

[5] = target: T3, CYP2D6 (Homo sapiens, UniProt P10635); assay: CYP inhibition in human liver microsomes; conditions: n = 2, read-out: CYP inhibition 2D6
T3 construct: tissue Eurofins Cerep (assay provider); host or cells: human liver microsomes
T3 sequence (P10635 whole entry): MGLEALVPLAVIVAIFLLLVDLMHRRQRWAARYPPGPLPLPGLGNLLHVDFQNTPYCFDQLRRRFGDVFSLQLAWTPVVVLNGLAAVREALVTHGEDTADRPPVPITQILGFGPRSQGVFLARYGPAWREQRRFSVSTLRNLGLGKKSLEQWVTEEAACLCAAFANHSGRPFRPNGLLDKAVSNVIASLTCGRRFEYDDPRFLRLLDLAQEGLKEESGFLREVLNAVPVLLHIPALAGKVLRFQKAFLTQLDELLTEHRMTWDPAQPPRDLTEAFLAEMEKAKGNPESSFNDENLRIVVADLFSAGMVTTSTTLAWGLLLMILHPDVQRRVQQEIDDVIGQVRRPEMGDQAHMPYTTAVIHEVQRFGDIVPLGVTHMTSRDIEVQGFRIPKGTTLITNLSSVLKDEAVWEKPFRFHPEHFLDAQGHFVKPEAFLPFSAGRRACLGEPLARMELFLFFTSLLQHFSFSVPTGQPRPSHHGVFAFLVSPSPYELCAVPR
Experimental: as §2, §3

[6] = system: CYP1A; assay: CYP inhibition in human liver microsomes; conditions: n = 2, read-out: CYP inhibition 1A
Experimental: as §2, §3

[7] = target: T4, CYP2B6 (Homo sapiens, UniProt P20813); assay: CYP inhibition in human liver microsomes; conditions: n = 2, read-out: CYP inhibition 2B6
T4 construct: tissue Eurofins Cerep (assay provider); host or cells: human liver microsomes
T4 sequence (P20813 whole entry): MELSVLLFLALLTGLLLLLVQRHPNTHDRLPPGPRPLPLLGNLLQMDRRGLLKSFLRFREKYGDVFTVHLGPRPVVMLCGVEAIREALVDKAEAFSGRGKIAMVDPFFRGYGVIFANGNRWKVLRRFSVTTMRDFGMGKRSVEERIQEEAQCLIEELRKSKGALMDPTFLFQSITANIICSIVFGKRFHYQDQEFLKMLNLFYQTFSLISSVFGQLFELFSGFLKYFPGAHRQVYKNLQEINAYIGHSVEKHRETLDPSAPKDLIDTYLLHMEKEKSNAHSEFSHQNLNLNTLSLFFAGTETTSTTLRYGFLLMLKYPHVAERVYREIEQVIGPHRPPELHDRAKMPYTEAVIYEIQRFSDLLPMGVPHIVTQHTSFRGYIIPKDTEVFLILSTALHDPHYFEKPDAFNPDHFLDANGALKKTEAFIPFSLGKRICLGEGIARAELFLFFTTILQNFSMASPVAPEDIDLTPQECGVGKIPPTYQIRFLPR
Experimental: as §2, §3

[8] = target: T5, CYP2C8 (Homo sapiens, UniProt P10632); assay: CYP inhibition in human liver microsomes; conditions: n = 2, read-out: CYP inhibition 2C8
T5 construct: tissue Eurofins Cerep (assay provider); host or cells: human liver microsomes
T5 sequence (P10632 whole entry): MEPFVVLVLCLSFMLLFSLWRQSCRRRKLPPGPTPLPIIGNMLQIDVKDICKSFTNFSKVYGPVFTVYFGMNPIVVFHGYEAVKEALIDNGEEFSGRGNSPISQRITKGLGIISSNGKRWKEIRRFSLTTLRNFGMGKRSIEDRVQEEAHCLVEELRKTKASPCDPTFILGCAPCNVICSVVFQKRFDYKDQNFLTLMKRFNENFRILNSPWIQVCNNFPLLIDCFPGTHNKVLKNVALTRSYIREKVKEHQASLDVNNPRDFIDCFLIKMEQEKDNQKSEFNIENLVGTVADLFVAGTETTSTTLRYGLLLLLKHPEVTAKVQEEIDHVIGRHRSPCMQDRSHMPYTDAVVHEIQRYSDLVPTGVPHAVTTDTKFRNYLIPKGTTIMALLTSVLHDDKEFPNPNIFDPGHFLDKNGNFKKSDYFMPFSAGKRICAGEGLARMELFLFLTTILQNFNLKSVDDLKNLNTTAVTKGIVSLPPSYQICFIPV
Experimental: as §2, §3

[9] = Plasma protein binding; conditions: n = 2
Experimental: as §1
Standardized in vitro ADME experiments were performed by Eurofins Cerep (Poitiers, France). […] The compound was classically evaluated at 10 µM for all of the ADME analyses. Bidirectional permeability (apical A to basolateral B pH 6.5/7.4, and basolateral B to apical A pH 7.4/6.5) was assessed in the epithelial colorectal adenocarcinoma cell line (Caco-2 cell line). The results were expressed as ×10^−6 cm/s (Papp) and as % recovery. The efflux ratio, i.e., Papp (B→A)/Papp(A→B), was calculated. Plasma protein binding was analyzed by HPLC-MS/MS after 4 h of incubation at 37 °C, as described by Banker et al.. Concentration was evaluated by LC/MS-MS. […] Respective metabolites for each specific transporter substrate were analyzed by fluorometry or scintillation counting, and % inhibition of control values were calculated. […] The efflux ratio was calculated as Papp(B→A)/Papp(A→B). […]

[10] = Bidirectional permeability in Caco-2 cells; conditions: human; for Papp A→B at 10 µM / Papp B→A at 10 µM: pH 7.4, 10 µM; for Papp A→B at 10 µM: n = 2, read-out: Permeability A/B pH7.4/7.4; for Papp B→A at 10 µM: n = 2, read-out: Permeability B/A pH7.4/7.4; for efflux ratio at 10 µM: read-out: e-ratio
Experimental: as §1, §3

SMILES	half-life at 10 µM [1]	inhibition at 10 µM [2]	inhibition at 10 µM [3]	inhibition at 10 µM [4]	inhibition at 10 µM [5]	inhibition at 10 µM [6]	inhibition at 10 µM [7]	inhibition at 10 µM [8]	fraction unbound at 4 h, 10 µM [9]	Papp A→B at 10 µM [10]	Papp B→A at 10 µM [10]	efflux ratio at 10 µM [10]
CN(CCC(=O)NCc1ccc(C#N)cc1)Cc1ccccc1 [Compound 6, 3-(Benzylmethylamino)-N-(4-cyanobenzyl)propanamide]	> 48 h	30%	17.4%	10%	87.7%	13.2%	17.7%	-12.1%	0.37	49.8 ×10⁻⁶ cm/s	60.9 ×10⁻⁶ cm/s	1.2
CN(CCC(=O)NCc1cccc(Cl)c1)Cc1ccccc1 [Compound 2, 3-(Benzylmethylamino)-N-(3-chlorobenzyl)propanamide]	35 h	43.9%	30.9%	13.1%	80.5%	23.3%	16.9%	-16.8%	0.02	39 ×10⁻⁶ cm/s	67.4 ×10⁻⁶ cm/s	1.7
